In brackets after ≈: the same amount, converted by molar mass. Numbered stars: 1 amine (or outer) side, 2 acyl side, 3 side chain; on linkers, the order of the positions; unused ones are H or OH. Square brackets hold non-standard residues; d marks the D form. Peptide text beside a SMILES is read from it. * marks the point of attachment. ξ: configuration not given here. X1 = N=C1NCC(C(O)C(N[*:1])C(=O)[*:2])N1C1OC(CO)C(O)C(O)C1O; ξEnduracididine(βξ-OH,4'ξ) = N=C1NCC(C(O)C(N)C(=O)O)N1; X2 = OCC1OC(OC2C(CO)OC(*)C(O)C2O)C(O)C(O)C1O; Cha = N[CH](CC1CCCCC1)C(=O)O
Tests used:
[1] = anatomic pathology (histopathology of heart and kidney) in mice; format: in vivo; conditions: CD-1 mice, 20 mg/kg intravenously daily for 9 days, necropsy day 10, microscopic histopathology
Procedure: Samples of tissues from necropsied mice were formalin-fixed, paraffin-embedded, sectioned, stained with hematoxylin and eosin, and examined microscopically. Histopathologic findings were recorded. These findings were subjectively graded on a scale corresponding to slight, mild, moderate, marked and severe as compared to untreated controls.

Staphylococcus sp. = assay: in vitro antibacterial evaluation, MIC by broth dilution; format: cell-based; conditions: broth dilution, 18 hours at 35° C.
Method in brief: (§1)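 MIC = lowest antibiotic concentration preventing visible growth; inoculum 5×10^5 CFU/mL; drug range 64-0.06 μg/mL; Muller-Hinton II […]; NCCLS M7-A2 guidance.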

Enterococcus sp. = assay: as above; format: cell-based; conditions: broth dilution, 18 hours at 35° C.
Method in brief: as §1

Escherichia coli = assay: as above; format: cell-based; conditions: 18 hours at 35° C.
Method in brief: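 Inoculum 5×10^5 CFU/mL; concentrations 64 to 0.06 μg/mL; MIC defined as lowest inhibitory level. Conducted by broth dilution under NCCLS guidelines.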

Streptococcus sp. = assay: as above; format: cell-based; conditions: broth dilution, 18 hours at 35° C.
Method in brief: as §1

[2] = clinical pathology (serum clinical chemistry) in mice; format: in vivo; conditions: CD-1 mice, 20 mg/kg intravenously daily for 9 days, sera day 10
Procedure: 20-day-old CD-1 mice were divided into a vehicle control group (5 mice) and a treatment group (5 mice). Samples of glycopeptide antibiotics were administered at 20 mg/kg intravenously daily for 9 days.

N=C1NCC(C(O)C2NC(=O)C(Cc3ccc(OC4OC(CO)C(OC5OC(CO)C(O)C(O)C5O)C(O)C4O)cc3)NC(=O)C(CC3CCCCC3)NC(=O)CNC(=O)C(CO)NC(=O)C(C(O)C3CNC(=N)N3C3OC(CO)C(O)C(O)C3O)NC2=O)N1 (stereo not drawn) [Example 263, Cyclo[3-cyclohexylalanyl-O-(4-O-hexopyranosylhexopyranosyl)tyrosyl-3-(2-iminoimidazolidin-4-yl)seryl-3-(3-hexopyranosyl-2-iminoimidazolidin-4-yl)serylserylglycyl]] (cyclo(G[Cha]Y(X2)[ξEnduracididine(βξ-OH,4'ξ)][X1]S); configuration not given here)
Anatomical Pathology (Day 10), Heart [1]: + | Anatomical Pathology (Day 10), Kidney [1]: ++ | MIC Coagulase Negative Staphylococcus (GC 4547) (Staphylococcus sp.): 64 µg/mL (≈ 49.7 µM) | MIC Coagulase Negative Staphylococcus (GC 4548) (Staphylococcus sp.): 32 µg/mL (≈ 24.9 µM) | MIC Coagulase Negative Staphylococcus (GC 4549) (Staphylococcus sp.): 16 µg/mL (≈ 12.4 µM) | MIC Coagulase Negative Staphylococcus (GC 4551) (Staphylococcus sp.): 64 µg/mL (≈ 49.7 µM) | MIC Staphylococcus aureus (ATCC 29213) (Staphylococcus sp.): 64 µg/mL (≈ 49.7 µM) | MIC Staphylococcus aureus (GC 1131) (Staphylococcus sp.): 64 µg/mL (≈ 49.7 µM) | MIC Staphylococcus aureus (GC 4541) (Staphylococcus sp.): 64 µg/mL (≈ 49.7 µM) | MIC Staphylococcus aureus (GC 4542) (Staphylococcus sp.): 64 µg/mL (≈ 49.7 µM) | MIC Staphylococcus aureus (GC 4544) (Staphylococcus sp.): >64 µg/mL | MIC Staphylococcus aureus (GC 4545) (Staphylococcus sp.): 64 µg/mL (≈ 49.7 µM) | MIC Staphylococcus aureus-SMITH (GC 4543) (Staphylococcus sp.): 32 µg/mL (≈ 24.9 µM) | MIC Staphylococcus haemolyticus (GC 4546) (Staphylococcus sp.): 32 µg/mL (≈ 24.9 µM) | MIC Staphylococcus aureus (ATCC 29213) (Staphylococcus sp.; strain ATCC 29213): 64 µg/mL (≈ 49.7 µM) | MIC Staphylococcus aureus (GC 1131) (Staphylococcus sp.; strain GC 1131): 64 µg/mL (≈ 49.7 µM) | MIC Staphylococcus aureus (GC 4541) (Staphylococcus sp.; strain GC 4541): 64 µg/mL (≈ 49.7 µM) | MIC Staphylococcus aureus (GC 4542) (Staphylococcus sp.; strain GC 4542): 64 µg/mL (≈ 49.7 µM) | MIC Staphylococcus aureus (GC 4544) (Staphylococcus sp.; strain GC 4544): >64 µg/mL | MIC Staphylococcus aureus (GC 4545) (Staphylococcus sp.; strain GC 4545): 64 µg/mL (≈ 49.7 µM) | MIC Staphylococcus haemolyticus (GC 4546) (Staphylococcus sp.; strain GC 4546): 32 µg/mL (≈ 24.9 µM) | MIC Coagulase Negative Staphylococcus (GC 4547) (Staphylococcus sp.; strain GC 4547): 64 µg/mL (≈ 49.7 µM) | MIC Coagulase Negative Staphylococcus (GC 4548) (Staphylococcus sp.; strain GC 4548): 32 µg/mL (≈ 24.9 µM) | MIC Coagulase Negative Staphylococcus (GC 4549) (Staphylococcus sp.; strain GC 4549): 16 µg/mL (≈ 12.4 µM) | MIC Coagulase Negative Staphylococcus (GC 4551) (Staphylococcus sp.; strain GC 4551): 64 µg/mL (≈ 49.7 µM) | MIC Staphylococcus aureus-SMITH (GC 4543) (Staphylococcus sp.; strain SMITH GC 4543): 32 µg/mL (≈ 24.9 µM) | MIC Enterococcus avium (GC 4558) (Enterococcus sp.; Enterococcus avium (GC 4558)): >64 µg/mL | MIC Enterococcus faecalis (ATCC 29212) (Enterococcus sp.; Enterococcus faecalis (ATCC 29212)): >64 µg/mL | MIC Enterococcus faecalis (GC 4553) (Enterococcus sp.; Enterococcus faecalis (GC 4553)): >64 µg/mL | MIC Enterococcus faecalis (GC 4554) (Enterococcus sp.; Enterococcus faecalis (GC 4554)): >64 µg/mL | MIC Enterococcus faecium (GC 2243) (Enterococcus sp.; Enterococcus faecium (GC 2243)): >64 µg/mL | MIC Enterococcus faecium (GC 4556) (Enterococcus sp.; Enterococcus faecium (GC 4556)): >64 µg/mL | MIC Enterococcus faecium (GC 4557) (Enterococcus sp.; Enterococcus faecium (GC 4557)): 32 µg/mL (≈ 24.9 µM) | MIC Enterococcus faecalis (ATCC 29212) (Enterococcus sp.; strain ATCC 29212): >64 µg/mL | MIC Enterococcus faecalis (GC 2242) (Enterococcus sp.; strain GC 2242): >64 µg/mL | MIC Enterococcus faecium (GC 2243) (Enterococcus sp.; strain GC 2243): >64 µg/mL | MIC Enterococcus faecalis (GC 4552) (Enterococcus sp.; strain GC 4552): >64 µg/mL | MIC Enterococcus faecalis (GC 4553) (Enterococcus sp.; strain GC 4553): >64 µg/mL | MIC Enterococcus faecalis (GC 4554) (Enterococcus sp.; strain GC 4554): >64 µg/mL | MIC Enterococcus faecium (GC 4556) (Enterococcus sp.; strain GC 4556): >64 µg/mL | MIC Enterococcus faecium (GC 4557) (Enterococcus sp.; strain GC 4557): 32 µg/mL (≈ 24.9 µM) | MIC Enterococcus avium (GC 4558) (Enterococcus sp.; strain GC 4558): >64 µg/mL | MIC Escherichia coli (ATCC 25922) (Escherichia coli; Escherichia coli (ATCC 25922)): >64 µg/mL | MIC Escherichia coli (GC 4559) (Escherichia coli; Escherichia coli (GC 4559)): >64 µg/mL | MIC Escherichia coli (GC 4560) (Escherichia coli; Escherichia coli (GC 4560)): 16 µg/mL (≈ 12.4 µM) | MIC Streptococcus agalactiae (GC 4564) (Streptococcus sp.; strain GC 4564): 32 µg/mL (≈ 24.9 µM) | MIC Streptococcus pyogenes (ID-3187) (Streptococcus sp.; strain ID-3187): 32 µg/mL (≈ 24.9 µM) | Clinical Chemistry (Day 10) % of Control, Creatinine [2]: +116%
